Source: patent US9630935B2, “Compositions for the treatment of hypertension and/or fibrosis” (Vectus Biosystems Limited, priority 2013, dated 2017)

How the values were obtained:
[1] = system: spontaneous hypertensive rats (SHR); assay: Oral study in SHR on 2.2% salt diet: myocardial fibrosis, histomorphometry on Masson's trichrome stained sections; type: in vivo, rat; conditions: for Fibrosis in the heart: 18 week old SHR on 2.2% salt diet, 4 weeks treatment, 500 pmol/kg/min orally, compared to controls (FIG. 16); for Histological sections from the hearts (micrographs): rats on 2.2% salt diet treated four weeks with 500 pmol/kg/min, control has extensive fibrosis (FIG. 20)
Description: (§1) Fourteen week old SHR (on a 2.2% salt diet; Glen Forrest Stockfeeders) were randomly assigned to zero time control, test compound treatment (100 or 500 pmol/kg/min) in the drinking solution or control drinking solution (5% ethanol in deionised distilled water (n=5 each group). The rats assigned to zero time control group were anaesthetised and had their heart and kidneys harvested while rats assigned to control and test compound treatment were weighed twice weekly and had their drinking solution intake monitored to allow adjustment of the test compound concentration in the drinking solution to maintain a constant dose over the 4-week study period. Blood pressure was measured twice weekly by tail cuff plethysmography (PowerLab, ADInstruments, Castle Hill, NSW, Australia).
(§2) After 4 weeks rats were anaesthetised, and their hearts and kidneys harvested for quantitation of fibrosis.
(§3) To quantitate tissue fibrosis tissue slices ≦3 mm thick were fixed in 10% buffered formalin for 24 hours, processed and embedded in paraffin. Three micron transverse sections were stained using Masson's trichrome stain. A minimum of […] random fields at magnification ×20 from transverse sections (5 at each of 2 levels) were digitized and the degree of fibrosis determined as a percent of field area of each digitized image using Image-Pro Plus V.7 (Media Cybernetics, Bethesda, Md., USA) then averaged to determine the level of fibrosis for tissue for each rat.

[2] = system: spontaneous hypertensive rats (SHR); assay: Oral study in SHR on 2.2% salt diet: blood pressure by tail cuff plethysmography; type: in vivo, rat; conditions: 4 weeks treatment, 100 or 500 pmol/kg/min orally in drinking solution, compared to controls (FIG. 13)
Description: as §1

[3] = system: spontaneous hypertensive rats (SHR); assay: Oral study in SHR on 2.2% salt diet: kidney interstitial fibrosis, histomorphometry on Masson's trichrome stained sections; type: in vivo, rat; conditions: for Fibrosis in the kidney: 18 week old SHR on 2.2% salt diet, 4 weeks treatment, 500 pmol/kg/min orally, compared to controls (FIG. 17); for Histological sections from the kidneys (micrographs): rats on 2.2% salt diet treated four weeks with 500 pmol/kg/min, control has extensive fibrosis (FIG. 21)
Description: as §1, §2, §3

melting point [°C] | SMILES | Fibrosis in the heart [1] | Histological sections from the hearts (micrographs) [1] | Mean diastolic blood pressure [2] | Mean systolic blood pressure [2] | Fibrosis in the kidney [3] | Histological sections from the kidneys (micrographs) [3]
– | CS(=O)(=O)Nc1cccc(-c2ccc(-c3ccccc3)cc2CCC(N)=O)c1 [T1, 3-(3-(Methylsulfonamido)-[1,1′:4′,1″-terphenyl]-2′-yl)propanamide] | decreased compared to controls | no discrete areas of fibrosis are present | decreased compared to controls | decreased blood pressure compared to controls | decreased compared to controls | fibrosis has been reduced to thin bands incompletely surrounding some but not all tubules
– | NC(=O)CCc1cc(-c2ccccc2)ccc1-c1cccc(NC=O)c1 [T2, 3-(3-Formamido-[1,1′:4′,1″-terphenyl]-2′-yl)propanamide] | decreased compared to controls | no discrete areas of fibrosis are present | decreased compared to controls | decreased blood pressure compared to controls | decreased compared to controls | fibrosis has been reduced to thin bands incompletely surrounding some but not all tubules
232 to 233 | NC(=O)CCc1cc(-c2ccccc2)ccc1-c1cc(O)cc(O)c1 [T20, 3-(3,5-Dihydroxy-[1,1′:4′,1″-terphenyl]-2′-yl)propanamide] | decreased compared to controls | no discrete areas of fibrosis are present | – | decreased blood pressure compared to controls | decreased compared to controls | fibrosis has been reduced to thin bands incompletely surrounding some but not all tubules
219 to 222 | NC(=O)CCc1cc(-c2ccccc2)ccc1-c1ccc2c(c1)NC(=O)C2 [T25, 3-(4-(2-Oxoindolin-6-yl)-[1,1′-biphenyl]-3-yl)propanamide] | – | – | – | – | – | –
250 to 251 | NC(=O)CCc1cc(-c2ccccc2)ccc1-c1ccc2[nH]c(=O)[nH]c2c1 [T31, 3-(4-(2-Oxo-2,3-dihydro-1H-benzo[d]imidazol-5-yl)-[1,1′-biphenyl]-3-yl)propanamide] | decreased compared to controls | no discrete areas of fibrosis are present | decreased compared to controls | decreased blood pressure compared to controls | decreased compared to controls | fibrosis has been reduced to thin bands incompletely surrounding some but not all tubules
248 to 249 | NC(=O)CCc1cc(-c2ccccc2)ccc1-c1ccnc(N)c1 [T48, 3-(4-(2-Aminopyridin-4-yl)-[1, 1′-biphenyl]-3-yl)propanamide] | decreased compared to controls | – | – | decreased blood pressure compared to controls | decreased compared to controls | –
– | CS(=O)(=O)Nc1cc(NS(C)(=O)=O)cc(-c2ccc(-c3ccccc3)cc2CCC(N)=O)c1 [T70, 3-(3,5-Di(methylsulfonamido)-[1,1′:4′,1″-terphenyl]-2′-yl)propanamide] | decreased compared to controls | – | decreased compared to controls | decreased blood pressure compared to controls | decreased compared to controls | –
